The test has as its target T1, aromatase (Homo sapiens, UniProt P11511).
T1 construct: aromatase preparation, usually 50-800 »g of microsomal protein per ml of assay buffer; from tissue; host or cells: microsomes
T1 sequence (P11511 1-503): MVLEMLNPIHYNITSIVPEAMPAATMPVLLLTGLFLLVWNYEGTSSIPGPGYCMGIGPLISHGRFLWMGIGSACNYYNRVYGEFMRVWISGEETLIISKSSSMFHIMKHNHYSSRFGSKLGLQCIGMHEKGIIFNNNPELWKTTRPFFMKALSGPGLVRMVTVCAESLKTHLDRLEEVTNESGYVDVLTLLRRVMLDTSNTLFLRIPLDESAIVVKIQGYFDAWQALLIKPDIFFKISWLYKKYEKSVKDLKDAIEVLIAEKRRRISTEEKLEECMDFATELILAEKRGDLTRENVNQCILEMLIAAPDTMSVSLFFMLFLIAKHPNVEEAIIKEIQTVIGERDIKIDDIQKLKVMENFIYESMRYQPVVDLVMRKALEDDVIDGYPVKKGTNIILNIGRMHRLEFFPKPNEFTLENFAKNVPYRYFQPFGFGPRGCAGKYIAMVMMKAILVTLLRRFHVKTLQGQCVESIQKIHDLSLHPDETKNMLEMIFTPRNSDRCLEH
The test is described as follows: time-dependent aromatase inhibition assay (preincubation of inhibitor with enzyme, Kitz-Wilson analysis). It counts as biochemical. Conditions: for τ50: half-time of inactivation at infinite inhibitor concentration, Kitz-Wilson plots, time-dependent assay; for kinact/KI: ratio of kcat/Ki (inactivation), index of efficiency of enzyme inactivation. The protocol:
In this assay, the inhibitor is preincubated with enzyme prior to assaying for activity in the presence of high substrate levels. A time-related decrease in enzyme activity can be indicative of irreversible binding of the inhibitor with the enzyme.
In the time-dependent assay, an amount of the enzyme inhibitor in 100 »l of the assay buffer described above which will provide assay concentrations which are usually between 1 nM and 10 »M are added to 35 ml centrifuge tubes containing 600 »l of the NADPH generating system. The pre-incubation is started by the addition of 700 »l of aromatase preparation, usually 50-800 »g of microsomal protein per ml of assay buffer. These preparations are mixed using a vortex mixer and incubated for 0, 5, 10, or 20 minutes at 25°C. Then 100 »l of androstenedione (∼6.8 »M) containing 1β-³H androstenedione in assay buffer is added to provide an assay concentration of substrate (0.50 »M) which is at least ten times the Km of androstenedione (0.04 »M). Following vortexing, the enzyme incubation is continued for 10 minutes before being terminated by the addition of chloroform. The amount of radioactivity in the aqueous fraction is determined by scintillation procedures. The enzymatic activity for each concentration of inhibitor at each time period of preincubation is calculated as a percent of the respective vehicle control which is arbitrarily set at 100%. Therefore, the relative present enzyme inhibition is expressed as a percentage: (100 percent minus percent enzyme activity with inhibitor present).
Enzyme kinetic analysis utilized Kitz-Wilson plots for time-dependent assays. These analyses provide estimates of apparent Ki of inactivation which represents the inhibitor concentration required to produce half-maximal rate of enzyme inactivation. The pseudo first-order rate constant for enzyme inactivation (kcat) and the half-time of inactivation (τ₅₀) of infinite inhibitor concentrations were determined.

`C[C@]12CC[C@H]3[C@@H](CCC4=CC(=O)CC[C@@]43C(O)CBr)[C@@H]1CCC2=O` (single isomer, unassigned; diastereomer 10) [HOCHCH₂Br pure (R) diastereomer, 10-(2-Bromo-1-hydroxyethyl)-estr-4-ene-3,17-dione] displayed a Ki of 26 nM and a τ50 of 4.85 min.
The matching figures for `C[C@]12CC[C@H]3[C@@H](CCC4=CC(=O)CC[C@@]43C(O)CBr)[C@@H]1CCC2=O` (stereo partly drawn) [HOCHCH₂Br (S):(R)::9:1, 10-(2-Bromo-1-hydroxyethyl)-estr-4-ene-3,17-dione]: 1130 nM and 5.33 min.
`C[C@]12CC[C@H]3[C@@H](CCC4=CC(=O)CC[C@@]43C(O)CCl)[C@@H]1CCC2=O` (stereo partly drawn) [HOCHCH₂Cl (R):(S)::9:1, 10-(2-Chloro-1-hydroxyethyl)-estr-4-ene-3,17-dione]: the Ki came out at 63 nM, the τ50 came out at 3.60 min and the kinact/KI amounted to 50700 M⁻¹ s⁻¹.
The matching figures for `C[C@]12CC[C@H]3[C@@H](CCC4=CC(=O)CC[C@@]43C(O)CI)[C@@H]1CCC2=O` (stereo partly drawn) [HOCHCH₂I (R):(S)::9:1, 10-(2-Iodo-1-hydroxyethyl)-estr-4-ene-3,17-dione]: 11 nM, 2.22 min and 490000 M⁻¹ s⁻¹.
The matching figures for `C[C@]12CC[C@H]3[C@@H](CCC4=CC(=O)CC[C@@]43C(=O)CBr)[C@@H]1CCC2=O` [O=CCH₂Br, 10-(2-Bromoacetyl)-estr-4-ene-3,17-dione]: 190 nM, 32.7 min and 1860 M⁻¹ s⁻¹.

The record behind these values is patent EP0450515B1, “Haloethyl-substituted steroidal enzyme inhibitors” (MERRELL DOW PHARMACEUTICALS INC., priority 1990, dated 1991).
